Test results published in patent US9944647B2 (Incyte Corporation, priority 2015, dated 2018).

Each compound was assayed against LSD-1 enzyme (Homo sapiens (Human), UniProt O60341) (assay: LANCE LSD1/KDM1A demethylase assay (LSD1 histone demethylase biochemical assay)). Conditions: 1 nM LSD-1 enzyme, 1 hour preincubation at 25° C., Biotin-labeled Histone H3 peptide substrate.
Procedure: Example A: LSD1 Histone Demethylase Biochemical Assay
LANCE LSD1/KDM1A demethylase assay—10 μL of 1 nM LSD-1 enzyme (ENZO BML-SE544-0050) in the assay buffer (50 mM Tris, pH 7.5, 0.01% Tween-20, 25 mM NaCl, 5 mM DTT) were preincubated for 1 hour at 25° C. with 0.8 μL compound/DMSO dotted in black 384 well polystyrene plates. […] Reactions were stopped by addition of 10 μL 1×LANCE Detection Buffer (PerkinElmer CR97-100) supplemented with 1.5 nM Eu-anti-unmodified H3K4 Antibody (PerkinElmer TRF0404), and 225 nM LANCE Ultra Streptavidin (PerkinElmer TRF102) along with 0.9 mM Tranylcypromine-HCl (Millipore 616431). After stopping the reactions plates were incubated for 30 minutes and read on a PHERAstar FS plate reader (BMG Labtech).

Cc1ccc(-c2c(-c3ccc(C#N)cc3)nc(OC[C@@H]3CCCN(C)C3)n3ccnc23)cc1 [Example 1, 4-(8-(4-methylphenyl)-5-{[(3R)-1-methylpiperidin-3-yl]methoxy}imidazo[1,2-c]pyrimidin-7-yl)benzonitrile] and Cc1ccc(-c2c(-c3ccc(C#N)cc3)nc(OC[C@@H]3CCN(C)C3)n3ccnc23)cc1 [Example 2, 4-(8-(4-methylphenyl)-5-{[(3R)-1-methylpyrrolidin-3-yl]methoxy}imidazo[1,2-c]pyrimidin-7-yl)benzonitrile] cannot be ordered by IC50: ≤ 50 nM for the first, 50 to 500 nM for the second.

COc1ccc(-c2c(-c3ccc(C#N)cc3)nc(OC[C@@H]3CCCN(C)C3)n3ccnc23)cn1 [Example 3, 4-(8-(6-methoxypyridin-3-yl)-5-{[(3R)-1-methylpiperidin-3-yl]methoxy}imidazo[1,2-c]pyrimidin-7-yl)benzonitrile] and CN1CCC[C@@H](COc2nc(-c3ccc(C#N)cc3)c(-c3ccc(N(C)C)nc3)c3nccn23)C1 [Example 4, 4-(8-[6-(dimethylamino)pyridin-3-yl]-5-{[(3R)-1-methylpiperidin-3-yl]methoxy}imidazo[1,2-c]pyrimidin-7-yl)benzonitrile] cannot be ordered by IC50: ≤ 50 nM for the first, ≤ 50 nM for the second.

CN1CCC[C@@H](COc2nc(-c3ccc(C#N)cc3)c(-c3ccc(N4CCCC4)nc3)c3nccn23)C1 [Example 5, 4-[5-{[(3R)-1-methylpiperidin-3-yl]methoxy}-8-(6-pyrrolidin-1-ylpyridin-3-yl)imidazo[1,2-c]pyrimidin-7-yl]benzonitrile] and CN1CC[C@@H](COc2nc(-c3ccc(C#N)cc3)c(-c3ccc(N4CCCC4)nc3)c3nccn23)C1 [Example 22, 4-[5-{[(3R)-1-methylpyrrolidin-3-yl]methoxy}-8-(6-pyrrolidin-1-ylpyridin-3-yl)imidazo[1,2-c]pyrimidin-7-yl]benzonitrile] cannot be ordered by IC50: ≤ 50 nM for the first, 50 to 500 nM for the second.

CN1CCC[C@@H](COc2nc(-c3ccc(C#N)cc3)c(-c3ccc4c(c3)CC(=O)N4C)c3nccn23)C1 [Example 6, 4-(8-(1-methyl-2-oxo-2,3-dihydro-1H-indol-5-yl)-5-{[(3R)-1-methylpiperidin-3-yl]methoxy}imidazo[1,2-c]pyrimidin-7-yl)benzonitrile] and CN1CC[C@@H](COc2nc(-c3ccc(C#N)cc3)c(-c3ccc4c(c3)CC(=O)N4C)c3nccn23)C1 [Example 23, 4-(8-(1-methyl-2-oxo-2,3-dihydro-1H-indol-5-yl)-5-{[(3R)-1-methylpyrrolidin-3-yl]methoxy}imidazo[1,2-c]pyrimidin-7-yl)benzonitrile] fall in the same range of IC50: 50 to 500 nM for the first, 50 to 500 nM for the second.

CN1CCC[C@@H](COc2nc(-c3ccc(C#N)cc3)c(-c3ccc4c(c3)oc(=O)n4C)c3nccn23)C1 [Example 7, 4-(8-(3-methyl-2-oxo-2,3-dihydro-1,3-benzoxazol-6-yl)-5-{[(3R)-1-methylpiperidin-3-yl]methoxy}imidazo[1,2-c]pyrimidin-7-yl)benzonitrile] and CN1CC[C@@H](COc2nc(-c3ccc(C#N)cc3)c(-c3ccc4c(c3)oc(=O)n4C)c3nccn23)C1 [Example 26, 4-(8-(3-methyl-2-oxo-2,3-dihydro-1,3-benzoxazol-6-yl)-5-{[(3R)-1-methylpyrrolidin-3-yl]methoxy}imidazo[1,2-c]pyrimidin-7-yl)benzonitrile] cannot be ordered by IC50: ≤ 50 nM for the first, 50 to 500 nM for the second.

CN1CCC[C@@H](COc2nc(-c3ccc(C#N)cc3)c(-c3ccc4c(cnn4C)c3)c3nccn23)C1 [Example 8, 4-(8-(1-methyl-1H-indazol-5-yl)-5-{[(3R)-1-methylpiperidin-3-yl]methoxy}imidazo[1,2-c]pyrimidin-7-yl)benzonitrile] and CN1CC[C@@H](COc2nc(-c3ccc(C#N)cc3)c(-c3ccc4c(cnn4C)c3)c3nccn23)C1 [Example 27, 4-(8-(1-methyl-1H-indazol-5-yl)-5-{[(3R)-1-methylpyrrolidin-3-yl]methoxy}imidazo[1,2-c]pyrimidin-7-yl)benzonitrile] cannot be ordered by IC50: ≤ 50 nM for the first, ≤ 50 nM for the second.

CN1CCN(Cc2ccc(-c3c(-c4ccc(C#N)cc4)nc(OC[C@@H]4CCCN(C)C4)n4ccnc34)cc2)CC1 [Example 9, 4-(8-{4-[(4-methylpiperazin-1-yl)methyl]phenyl}-5-{[(3R)-1-methylpiperidin-3-yl]methoxy}imidazo[1,2-c]pyrimidin-7-yl)benzonitrile] and CN1CCN(C(=O)Cc2ccc(-c3c(-c4ccc(C#N)cc4)nc(OC[C@@H]4CCCN(C)C4)n4ccnc34)cc2)CC1 [Example 10, 4-(8-{4-[2-(4-methylpiperazin-1-yl)-2-oxoethyl]phenyl}-5-{[(3R)-1-methylpiperidin-3-yl]methoxy}imidazo[1,2-c]pyrimidin-7-yl)benzonitrile] cannot be ordered by IC50: ≤ 50 nM for the first, ≤ 50 nM for the second.

CN1CCC[C@@H](COc2nc(-c3ccc(C#N)cc3)c(-c3ccc(CCN4CCOCC4)cc3)c3nccn23)C1 [Example 11, 4-{5-{[(3R)-1-methylpiperidin-3-yl]methoxy}-8-[4-(2-morpholin-4-ylethyl)phenyl]imidazo[1,2-c]pyrimidin-7-yl}benzonitrile] and CN1CCC[C@@H](COc2nc(-c3ccc(C#N)cc3)c(-c3ccc(CN4CCOCC4)cc3)c3nccn23)C1 [Example 12, 4-{5-{[(3R)-1-methylpiperidin-3-yl]methoxy}-8-[4-(morpholin-4-ylmethyl)phenyl]imidazo[1,2-c]pyrimidin-7-yl}benzonitrile] fall in the same range of IC50: 50 to 500 nM for the first, 50 to 500 nM for the second.

CN1CCC[C@@H](COc2nc(-c3ccc(C#N)cc3)c(-c3ccc(CN4CC[C@H](C#N)C4)cc3)c3nccn23)C1 [Example 13, (3S)-1-[4-(7-(4-cyanophenyl)-5-{[(3R)-1-methylpiperidin-3-yl]methoxy}imidazo[1,2-c]pyrimidin-8-yl)benzyl]pyrrolidine-3-carbonitrile] and CN1CCC[C@@H](COc2nc(-c3ccc(C#N)cc3)c(-c3ccc4cnn(C)c4c3)c3nccn23)C1 [Example 18, 4-(8-(1-methyl-1H-indazol-6-yl)-5-{[(3R)-1-methylpiperidin-3-yl]methoxy}imidazo[1,2-c]pyrimidin-7-yl)benzonitrile] cannot be ordered by IC50: ≤ 50 nM for the first, 50 to 500 nM for the second.

CN1CCC[C@@H](COc2nc(-c3ccc(C#N)cc3)c(-c3cnc4c(c3)OCCN4C)c3nccn23)C1 [Example 14, 4-(8-(4-methyl-3,4-dihydro-2H-pyrido[3,2-b][1,4]oxazin-7-yl)-5-{[(3R)-1-methylpiperidin-3-yl]methoxy}imidazo[1,2-c]pyrimidin-7-yl)benzonitrile] and CN1CC[C@@H](COc2nc(-c3ccc(C#N)cc3)c(-c3cnc4c(c3)OCCN4C)c3nccn23)C1 [Example 24, 4-(8-(4-methyl-3,4-dihydro-2H-pyrido[3,2-b][1,4]oxazin-7-yl)-5-{[(3R)-1-methylpyrrolidin-3-yl]methoxy}imidazo[1,2-c]pyrimidin-7-yl)benzonitrile] cannot be ordered by IC50: ≤ 50 nM for the first, ≤ 50 nM for the second.

CN1CCC[C@@H](COc2nc(-c3ccc(C#N)cc3)c(-c3ccc4c(c3)OCC(=O)N4C)c3nccn23)C1 [Example 15, 4-(8-(4-methyl-3-oxo-3,4-dihydro-2H-1,4-benzoxazin-7-yl)-5-{[(3R)-1-methylpiperidin-3-yl]methoxy}imidazo[1,2-c]pyrimidin-7-yl)benzonitrile] and CN1CCC[C@@H](COc2nc(-c3ccc(C#N)cc3)c(-c3ccc4c(c3)ncn4C)c3nccn23)C1 [Example 17, 4-(8-(1-methyl-1H-benzimidazol-5-yl)-5-{[(3R)-1-methylpiperidin-3-yl]methoxy}imidazo[1,2-c]pyrimidin-7-yl)benzonitrile] cannot be ordered by IC50: 50 to 500 nM for the first, ≤ 50 nM for the second.

CN1CCC[C@@H](COc2nc(-c3ccc(C#N)cc3)c(-c3ccc(N4CCCC4=O)nc3)c3nccn23)C1 [Example 16, 4-{5-{[(3R)-1-methylpiperidin-3-yl]methoxy}-8-[6-(2-oxopyrrolidin-1-yl)pyridin-3-yl]imidazo[1,2-c]pyrimidin-7-yl}benzonitrile] and CN1CCC[C@@H](COc2nc(-c3ccc(C#N)cc3)c(-c3cnc4c(ccn4C)c3)c3nccn23)C1 [Example 19, 4-[5-{[(3R)-1-methylpiperidin-3-yl]methoxy}-8-(1-methyl-1H-pyrrolo[2,3-b]pyridin-5-yl)imidazo[1,2-c]pyrimidin-7-yl]benzonitrile] cannot be ordered by IC50: 50 to 500 nM for the first, ≤ 50 nM for the second.

CN1CCC[C@@H](COc2nc(-c3ccc(C#N)cc3)c(-c3ccc4c(c3)CC(C(=O)N(C)C)O4)c3nccn23)C1 (stereo partly drawn) [Example 20, 5-(7-(4-cyanophenyl)-5-{[(3R)-1-methylpiperidin-3-yl]methoxy}imidazo[1,2-c]pyrimidin-8-yl)-N,N-dimethyl-2,3-dihydro-1-benzofuran-2-carboxamide] and CN1CC[C@@H](COc2nc(-c3ccc(C#N)cc3)c(-c3ccc(N(C)C)nc3)c3nccn23)C1 [Example 21, 4-(8-[6-(dimethylamino)pyridin-3-yl]-5-{[(3R)-1-methylpyrrolidin-3-yl]methoxy}imidazo[1,2-c]pyrimidin-7-yl)benzonitrile] cannot be ordered by IC50: ≤ 50 nM for the first, 50 to 500 nM for the second.

CN1CC[C@@H](COc2nc(-c3ccc(C#N)cc3)c(-c3ccc4c(c3)ncn4C)c3nccn23)C1 [Example 25, 4-(8-(1-methyl-1H-benzimidazol-5-yl)-5-{[(3R)-1-methylpyrrolidin-3-yl]methoxy}imidazo[1,2-c]pyrimidin-7-yl)benzonitrile] and CN1CCC[C@@H](COc2nc(-c3ccc(C#N)cc3)c(-c3cnc4c(cnn4C)c3)c3nccn23)C1 [Example 28, 4-[5-{[(3R)-1-methylpiperidin-3-yl]methoxy}-8-(1-methyl-1H-pyrazolo[3,4-b]pyridin-5-yl)imidazo [1,2-c]pyrimidin-7-yl]benzonitrile] cannot be ordered by IC50: 50 to 500 nM for the first, ≤ 50 nM for the second.
